For the test, the system named is avoidance behavior. As to the kind of experiment: Discrete Avoidance - Rats (avoidance block / escape block). The format is in vivo, rat. The conditions noted are these: for inhibition in vivo at 40 mg/kg / inhibition in vivo at 25 mg/kg: Rattus norvegicus. From the text: For example, by one procedure, trained rats are placed in experimental chambers equipped with a response lever, a steel grid floor for delivery of electric shock and a loudspeaker for presentation of auditory stimuli. […] The rats can terminate a trial at any point by depression of the response lever. A response during the initial fifteen-second warning tone ends the trial before shock delivery and is considered an avoidance response, while a response occurring during shock delivery is an escape response. Trials are presented every two minutes during a one-hour test session (30 trials per session). […] Compounds are administered to a minimum of three to four rats at each dose level over a range of doses. Rats receive vehicle alone, during control sessions prior to drug administration. Each rat is tested daily or weekly, after a single drug administration, until avoidance behavior returns to pre-drug baseline levels. The session is divided into three consecutive twenty minute (ten trial) segments. Response counts are summed over all subjects at a given dose within each segment. […] This number is expressed as a percentage of the total trials within the segment. […] The lowest dose which produced a 20% block of escape responding (EBD 20) is read from a graphic dose-effect plot. In obtaining these values, percent effect is plotted against the log dose.

Setting [1] is: 1 h, 40 mg/kg po, 60 min. post-drug, read-out: Percentage Block of Avoidance, 60 min. post-drug.
Where [2] appears, read: 40 mg/kg po, 24 hrs. post-drug, read-out: Percentage Block of Avoidance, 24 hrs. post-drug.
The mark [3] stands for this setting: 40 mg/kg po, at the indicated duration, read-out: Avoidance block at Duration of Sig. Activity (AB).
Where [4] appears, read: 40 mg/kg po, at time of peak effect, read-out: Avoidance block at Time of Peak Effect (AB).

Structures are written as SMILES. Structures can show the parent of a compound that is named as a salt. Where two headings read alike, the source gives them in different places. Some results are limits rather than exact numbers.

For `CC(C)NCCCCc1ccc(OCCN2CCN(CCCN3c4ccccc4Sc4ccc(Cl)cc43)CC2)cc1` [1-[3-(2-chloro-10H-phenothiazin-10-yl)propyl]-4-[2-[4-[4-(1-methylethyl)aminobutyl]phenoxy]ethyl]piperazine], the “Duration of Sig. Activity” value (40 mg/kg po) is 51/2. Also, the “Time of Peak Effect” value (40 mg/kg po) is 1 days. The inhibition in vivo at 40 mg/kg came out at 17% under setting [1], 100% under setting [2], 55% under setting [3] and 100% under setting [4].
Consider `Cl.Cl.Cl.NCCCOc1ccc(OCCN2CCN(CCCN3c4ccccc4Sc4ccc(Cl)cc43)CC2)cc1` [3-[[4-[2-[4-[3-(2-chloro-10H-phenothiazin-10-yl)propyl]-1-piperazinyl]ethoxy]phenyl]oxy]propanamine trihydrochloride], for which the “Duration of Sig. Activity” value (40 mg/kg po) was 51/2. In addition, the “Time of Peak Effect” value (40 mg/kg po) is reported as 3 days. Moreover, the inhibition in vivo at 40 mg/kg by setting is: under setting [1], 40%; under setting [2], 73%; under setting [3], 27%; under setting [4], 90%.
In the case of `CC(C)NC[C@@H](O)COc1ccc(OCCN2CCN(CCCN3c4ccccc4Sc4ccc(Cl)cc43)CC2)cc1.Cl.Cl.Cl` [(R)-1-(1-methylethylamino)-3-[4-[2-[4-[3-(2-chloro-10H-phenothiazin-10-yl)propyl]piperazin-1-yl]ethoxy]phenoxy]-2-propanol, trihydrochloride], the “Duration of Sig. Activity” value (40 mg/kg po) was 3 weeks. Also, the “Time of Peak Effect” value (40 mg/kg po) was determined as 10 days. Moreover, the inhibition in vivo at 40 mg/kg was 20% under setting [1], 27% under setting [2], 27% under setting [3] and 37% under setting [4].
With `CC(C)NCCOc1ccc(OCCN2CCN(CCCN3c4ccccc4Sc4ccc(Cl)cc43)CC2)cc1.Cl.Cl.Cl` [1-[3-(2-chloro-10H-phenothiazin-10-yl)propyl]-4-[2-[4-[2-(1-methylethyl)aminoethoxy]phenoxy]ethyl]piperazine trihydrochloride], the “Duration of Sig. Activity” value (40 mg/kg po) turned out to be 8 weeks. Where the note is “40 mg/kg po”, the “Time of Peak Effect” value is 1 days. Moreover, the inhibition in vivo at 40 mg/kg is, setting by setting: under setting [1], 10%; under setting [2], 100%; under setting [3], 37%; under setting [4], 100%.
For `CN(C)CCCOc1ccc(OCCN2CCN(CCCN3c4ccccc4Sc4ccc(Cl)cc43)CC2)cc1.Cl.Cl.Cl` [3-[[4-[2-[4-[3-(2-chloro-10H-phenothiazin-10-yl)propyl]-1-piperazinyl]ethoxy]phenyl]oxy]-N,N-dimethylpropanamine trihydrochloride], the “Duration of Sig. Activity” value (40 mg/kg po) is over 6 weeks. Moreover, the “Time of Peak Effect” value (40 mg/kg po) turned out to be 1 days. Further, the inhibition in vivo at 40 mg/kg worked out at 50% under setting [1], 100% under setting [2], 25% under setting [3] and 100% under setting [4].
Turning to `CC(C)NCCc1ccc(OCCN2CCN(CCCN3c4ccccc4Sc4ccc(Cl)cc43)CC2)cc1.O=C(O)/C=C\C(=O)O.O=C(O)/C=C\C(=O)O.O=C(O)/C=C\C(=O)O` [1-[3-(2-chloro-10H-phenothiazin-10-yl)propyl]-4-[2-[4-[2-(1-methylethyl)aminoethyl]phenoxy]ethyl]piperazine trimaleate], the “Duration of Sig. Activity” value (40 mg/kg po) is 5 weeks. For the setting “40 mg/kg po”, the “Time of Peak Effect” value came out at 1 days. Moreover, the inhibition in vivo at 40 mg/kg amounted to 10% under setting [1], 100% under setting [2], 80% under setting [3] and 100% under setting [4].
For `CC(C)NC[C@H](O)COc1ccc(OCCN2CCN(CCCN3c4ccccc4Sc4ccc(C(F)(F)F)cc43)CC2)cc1` [(S)-1-(1-methylethylamino)-3-[4-[2-[4-[3-(2-trifluoromethyl)-10H-phenothiazin-10-yl)propyl]piperazin-1-yl]ethoxy]phenoxy]-2-propanol trihydrochloride], the “Duration of Sig. Activity” value (25 mg/kg po) is recorded as 61/2. For the same molecule, under “25 mg/kg po”, the “Time of Peak Effect” value lay in the range of 3 to 10 days. Moreover, the inhibition in vivo at 25 mg/kg runs as follows: (1 h, 25 mg/kg po, 60 min. post-drug, read-out: Percentage Block of Avoidance, 60 min. post-drug) 33%; (25 mg/kg po, 24 hrs. post-drug, read-out: Percentage Block of Avoidance, 24 hrs. post-drug) 57%; (25 mg/kg po, at the indicated duration, read-out: Avoidance block at Duration of Sig. Activity (AB)) 37%; (25 mg/kg po, at time of peak effect, read-out: Avoidance block at Time of Peak Effect (AB)) 77 to 87%.
Turning to `CC(C)NCCCCCOc1ccc(OCCN2CCN(CCCN3c4ccccc4Sc4ccc(Cl)cc43)CC2)cc1` [1-[3-(2-chloro-10H--phenothiazin-10-yl)propyl]-4-[2-[4-[5-(1-methylethyl)aminopentoxy]phenoxy]ethyl]piperazine trimaleate], under “40 mg/kg po”, the “Duration of Sig. Activity” value is reported as 2 weeks. Also, the “Time of Peak Effect” value (40 mg/kg po) is 1 days. Further, the inhibition in vivo at 40 mg/kg is, setting by setting: under setting [1], 10%; under setting [2], 97%; under setting [3], 23%; under setting [4], 97%.
Consider `CC(C)NCCCCCCOc1ccc(OCCN2CCN(CCCN3c4ccccc4Sc4ccc(Cl)cc43)CC2)cc1` [1-[3-(2-chloro-10H-phenothiazin-10-yl)]-4-[2-[4-[6-(1-methylethyl)aminohexyloxy]phenoxy]ethyl]piperazine trihydrochloride], for which the “Duration of Sig. Activity” value (40 mg/kg po) stood at 1 weeks. In addition, for the setting “40 mg/kg po”, the “Time of Peak Effect” value worked out at 1 days. The inhibition in vivo at 40 mg/kg under setting [1] was 23%, the inhibition in vivo at 40 mg/kg under setting [2] worked out at 40%, the inhibition in vivo at 40 mg/kg under setting [3] worked out at 30% and the inhibition in vivo at 40 mg/kg under setting [4] amounted to 40%.
`CC(C)NCCCCOc1ccc(OCCN2CCN(CCCN3c4ccccc4Sc4ccc(Cl)cc43)CC2)cc1.Cl.Cl.Cl` [1-[3-(2-chloro-10H-phenothiazin-10-yl)propyl]-4-[2-[4-[4-(1-methylethyl)aminobutoxy]phenoxy]ethyl]piperazine trihydrochloride]: the “Duration of Sig. Activity” value (40 mg/kg po) worked out at 5 weeks. Also, the “Time of Peak Effect” value (40 mg/kg po) fell in the range of 3 to 10 days. Besides, the inhibition in vivo at 40 mg/kg under setting [1] turned out to be 20%, the inhibition in vivo at 40 mg/kg under setting [2] amounted to 33%, the inhibition in vivo at 40 mg/kg under setting [3] was 30% and the inhibition in vivo at 40 mg/kg under setting [4] was in the range of 97 to 100%.
Take `CSc1ccc2c(c1)N(CCCN1CCN(CCOc3ccc(OCCCCCNC(C)C)cc3)CC1)c1ccccc1S2.O=C(O)/C=C\C(=O)O.O=C(O)/C=C\C(=O)O.O=C(O)/C=C\C(=O)O` [1-[3-(2-methylthio-10H-phenothiazin-10-yl)propyl]-4-[2-[4-[5-(1-methylethyl)aminopentoxy]phenoxy]ethyl]piperazine trimaleate]: the “Duration of Sig. Activity” value (40 mg/kg po) stood at 3 days. The “Time of Peak Effect” value (40 mg/kg po) was 0.0417 days. Also, the inhibition in vivo at 40 mg/kg under setting [1] stood at 60%, the inhibition in vivo at 40 mg/kg under setting [2] was found to be 45%, the inhibition in vivo at 40 mg/kg under setting [3] stood at 35% and the inhibition in vivo at 40 mg/kg under setting [4] was determined as 60%.
Turning to `CC(C)NCCCc1ccc(OCCN2CCN(CCCN3c4ccccc4Sc4ccc(Cl)cc43)CC2)cc1.Cl.Cl.Cl` [1-[3-(2-chloro-10H-phenothiazin-10-yl)propyl]-4-[2-[4-[3-(1-methylethyl)aminopropyl]phenoxy]ethyl]piperazine trihydrochloride], for the setting “40 mg/kg po”, the “Duration of Sig. Activity” value stood at 5 weeks. Besides, the “Time of Peak Effect” value (40 mg/kg po) was 1 days. Further, the inhibition in vivo at 40 mg/kg runs as follows: under setting [1], 45%; under setting [2], 100%; under setting [3], 55%; under setting [4], 100%.
As to `CNCCCOc1ccc(OCCN2CCN(CCCN3c4ccccc4Sc4ccc(Cl)cc43)CC2)cc1.Cl.Cl.Cl` [3-[[4-[2-[4-[3-(2-chloro-10H-phenothiazin-10-yl)propyl]-1-piperazinyl]ethoxy]phenyl]oxy]-N-methylpropanamine trihydrochloride], the “Duration of Sig. Activity” value (40 mg/kg po) worked out at 5 weeks. The “Time of Peak Effect” value (40 mg/kg po) is given as 1 days. Also, the inhibition in vivo at 40 mg/kg turned out to be 65% under setting [1], 100% under setting [2], 25% under setting [3] and 100% under setting [4].
`CC(C)NCCCOc1ccc(OCCN2CCN(CCCN3c4ccccc4Sc4ccc(Cl)cc43)CC2)cc1` [1-[3-(2-chloro-10H-phenothiazin-10-yl)propyl]-4-2-[4-[3-(1-methylethyl)aminopropoxy]phenoxy]ethyl]piperazine trihydrochloride]: the “Duration of Sig. Activity” value (40 mg/kg po) was 5 weeks. In addition, the “Time of Peak Effect” value (40 mg/kg po) is listed as 1 days. For the same molecule, the inhibition in vivo at 40 mg/kg by setting is: under setting [1], 10%; under setting [2], 97%; under setting [3], 50%; under setting [4], 97%.

These data come from US4471116A, “Substituted (10H-phenothiazin-10-L)-propyl-1-piperazines” (Hoffmann-La Roche Inc., priority 1982, dated 1984).
